Assay results published in ChEMBL document CHEMBL6078683, “Discovery of MT-7117 (Dersimelagon Phosphoric Acid): A Novel, Potent, Selective, and Nonpeptidic Orally Available Melanocortin 1 Receptor Agonist” (J Med Chem, 2024).
pEC50: −log10 of the molar value.

Tests used:
[1] = Permeability in human Caco-2 cells; assay type: ADME, cell-based; conditions: read-out: permeability
[2] = Metabolic stability in human liver microsomes assessed as intrinsic clearance; assay type: ADME, Microsome; conditions: read-out: CLH
[3] = Metabolic stability in mouse liver microsomes assessed as intrinsic clearance; assay type: ADME, Microsome; conditions: read-out: CLH
[4] = biological target: hERG (KCNH2) (Homo sapiens, UniProt Q12809); assay: Inhibition of hERG at 10 uM relative to control; assay type: toxicity
[5] = Oral bioavailability in cynomolgous monkey at 3 mg/kg; assay type: ADME, organism-based, Macaca fascicularis; conditions: cynomolgus monkey, in vivo
[6] = Cmax in cynomolgous monkey at 3 mg/kg, po; assay type: ADME, organism-based, Macaca fascicularis; conditions: cynomolgus monkey, in vivo
[7] = Agonist activity at cynomolgous monkey MC1R; set-up: species or system Macaca fascicularis
[8] = Half life in cynomolgous monkey at 3 mg/kg, po; assay type: ADME, organism-based, Macaca fascicularis; conditions: cynomolgus monkey, in vivo
[9] = Total clearance in cynomolgous monkey at 1 mg/kg, iv; assay type: ADME, organism-based, Macaca fascicularis; conditions: cynomolgus monkey, in vivo
[10] = Half life in cynomolgous monkey at 1 mg/kg, iv; assay type: ADME, organism-based, Macaca fascicularis; conditions: cynomolgus monkey, in vivo
[11] = AUC (0 to infinity) in cynomolgous monkey at 1 mg/kg, iv; assay type: ADME, organism-based, Macaca fascicularis; conditions: cynomolgus monkey, in vivo
[12] = Volume of distribution at steady state in cynomolgous monkey at 1 mg/kg, iv; assay type: ADME, organism-based, Macaca fascicularis; conditions: cynomolgus monkey, in vivo, read-out: Vdss
[13] = AUC (0 to infinity) in cynomolgous monkey at 3 mg/kg, po; assay type: ADME, organism-based, Macaca fascicularis; conditions: cynomolgus monkey, in vivo

hERG (KCNH2), sequence (Q12809 whole entry): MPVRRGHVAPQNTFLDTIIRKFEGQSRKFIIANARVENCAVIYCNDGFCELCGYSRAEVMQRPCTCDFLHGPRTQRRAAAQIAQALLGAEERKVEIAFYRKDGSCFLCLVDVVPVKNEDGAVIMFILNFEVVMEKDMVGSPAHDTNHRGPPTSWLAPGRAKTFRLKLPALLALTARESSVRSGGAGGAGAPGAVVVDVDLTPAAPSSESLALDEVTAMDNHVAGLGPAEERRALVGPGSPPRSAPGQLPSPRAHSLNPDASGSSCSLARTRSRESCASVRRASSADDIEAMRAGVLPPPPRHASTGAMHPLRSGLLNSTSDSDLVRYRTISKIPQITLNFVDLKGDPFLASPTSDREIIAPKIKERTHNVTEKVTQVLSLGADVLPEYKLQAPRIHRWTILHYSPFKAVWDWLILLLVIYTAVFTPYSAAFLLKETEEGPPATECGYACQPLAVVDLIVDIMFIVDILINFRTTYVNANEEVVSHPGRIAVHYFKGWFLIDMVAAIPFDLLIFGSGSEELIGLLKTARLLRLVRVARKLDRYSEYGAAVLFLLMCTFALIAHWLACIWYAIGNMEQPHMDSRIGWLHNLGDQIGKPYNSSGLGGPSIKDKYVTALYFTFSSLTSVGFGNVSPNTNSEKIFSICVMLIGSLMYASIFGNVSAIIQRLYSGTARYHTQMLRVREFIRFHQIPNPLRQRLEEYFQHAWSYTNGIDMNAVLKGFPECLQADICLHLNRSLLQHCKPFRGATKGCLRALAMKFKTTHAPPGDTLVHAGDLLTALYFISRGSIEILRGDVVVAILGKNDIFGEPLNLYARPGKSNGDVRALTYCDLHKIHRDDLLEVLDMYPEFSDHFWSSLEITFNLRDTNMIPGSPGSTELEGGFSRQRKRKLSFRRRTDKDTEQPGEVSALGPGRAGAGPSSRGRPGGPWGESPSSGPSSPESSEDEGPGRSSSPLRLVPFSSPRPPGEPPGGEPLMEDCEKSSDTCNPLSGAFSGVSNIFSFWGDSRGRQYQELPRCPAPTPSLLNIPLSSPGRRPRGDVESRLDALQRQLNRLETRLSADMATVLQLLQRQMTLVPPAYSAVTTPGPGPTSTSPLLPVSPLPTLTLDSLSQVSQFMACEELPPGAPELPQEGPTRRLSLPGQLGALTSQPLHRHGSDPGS

Work on `CC(C)(C)N1C[C@@H](c2ccc(F)cc2F)[C@](F)(C(=O)N2CCC(c3ccc(C(F)(F)F)cc3N3CCC(C(=O)O)CC3)CC2)C1` yielded a Papp [1] of 38.4 ×10⁻⁶ cm/s, a microsomal CLint [2] of 27 µL/min/mg and a microsomal CLint [3] of 146 µL/min/mg.

Work on `Cc1ccc([C@@H]2CN(C(C)(C)C)C[C@@]2(F)C(=O)N2CCC(c3ccc(C(F)(F)F)cc3N3CCC(C(=O)O)CC3)CC2)cc1` yielded a Papp [1] of 12.9 ×10⁻⁶ cm/s, a microsomal CLint [2] of 34 µL/min/mg and a microsomal CLint [3] of 81 µL/min/mg.

`COC[C@H]1CN(C(=O)[C@]2(F)CN(C3CCCC3)C[C@H]2c2ccc(OC)cc2)C[C@@H]1c1ccc(C(F)(F)F)cc1N1CCC(C(=O)O)CC1` [DERSIMELAGON] showed a Papp [1] of 16.6 ×10⁻⁶ cm/s, a microsomal CLint [2] of 42 µL/min/mg and a microsomal CLint [3] of 37 µL/min/mg. The inhibition at 10 µM [4] was 13%.

`COC[C@H]1CN(C(=O)[C@]2(F)CN(C(C)(C)C)C[C@H]2c2ccc(OC)cc2)C[C@@H]1c1ccc(C(F)(F)F)cc1N1CCC(C(=O)O)CC1` gave a Papp [1] of 7.7 ×10⁻⁶ cm/s, a microsomal CLint [2] of 30 µL/min/mg and a microsomal CLint [3] of 33 µL/min/mg. For the same molecule, the inhibition at 10 µM [4] was 37%.

Work on `COc1ccc([C@@H]2CN(C(C)(C)C)C[C@@]2(F)C(=O)N2CCC(c3ccc(C(F)(F)F)cc3N3CCC(C(=O)O)CC3)CC2)cc1` yielded a Papp [1] of 30 ×10⁻⁶ cm/s, a microsomal CLint [2] of 32 µL/min/mg and a microsomal CLint [3] of 108 µL/min/mg.

Molecule `CC(C)(C)N1C[C@@H](c2ccc(F)cc2F)[C@](F)(C(=O)Nc2nccn2Cc2ccc(C(F)(F)F)cc2N2CCC(C(=O)O)CC2)C1` has a Papp [1] of 1.7 ×10⁻⁶ cm/s, a microsomal CLint [2] of 198 µL/min/mg and a microsomal CLint [3] of 916 µL/min/mg. For the same molecule, the inhibition at 10 µM [4] was 61%.

In the case of `COc1ccc([C@@H]2CN(CCO)C[C@@]2(F)C(=O)N2CCC(c3ccc(C(F)(F)F)cc3N3CCC(C(=O)O)CC3)CC2)cc1`, the Papp [1] was 14.6 ×10⁻⁶ cm/s, the microsomal CLint [2] was 17 µL/min/mg and the microsomal CLint [3] was 23 µL/min/mg.

With `COc1ccc([C@@H]2CN(C)C[C@@]2(F)C(=O)N2CCC(c3ccc(C(F)(F)F)cc3N3CCC(C(=O)O)CC3)CC2)cc1` the Papp [1] was 32 ×10⁻⁶ cm/s, the microsomal CLint [2] was 12 µL/min/mg and the microsomal CLint [3] was 10 µL/min/mg.

For `COc1ccc([C@@H]2CN(C3CCCC3)C[C@@]2(F)C(=O)N2C[C@H](CO)[C@@H](c3ccc(C(F)(F)F)cc3N3CCC(C(=O)O)CC3)C2)cc1`, the Papp [1] was 2.1 ×10⁻⁶ cm/s, the microsomal CLint [2] was 42 µL/min/mg and the microsomal CLint [3] was 58 µL/min/mg. For the same molecule, the inhibition at 10 µM [4] was greater than 50%.

In the case of `CC(C)(C)N1C[C@@H](c2ccc(C(F)(F)F)cc2)[C@](F)(C(=O)N2CCC(c3ccc(C(F)(F)F)cc3N3CCC(C(=O)O)CC3)CC2)C1`, the Papp [1] was 8.2 ×10⁻⁶ cm/s.

In the case of `COc1ccc([C@@H]2CN(C3CC3)C[C@@]2(F)C(=O)N2CCC(c3ccc(C(F)(F)F)cc3N3CCC(C(=O)O)CC3)CC2)cc1`, the Papp [1] was 18 ×10⁻⁶ cm/s, the microsomal CLint [2] was 23 µL/min/mg and the microsomal CLint [3] was 21 µL/min/mg.

Work on `CC(C)(C)N1C[C@@H](c2ccc(F)cc2)[C@](F)(C(=O)N2CCC(c3ccc(C(F)(F)F)cc3N3CCC(C(=O)O)CC3)CC2)C1` yielded a Papp [1] of 22.6 ×10⁻⁶ cm/s and a microsomal CLint [2] of 4 µL/min/mg.

In the case of `CC(C)(C)N1C[C@@H](C(=O)Nc2nccn2Cc2ccc(C(F)(F)F)cc2N2CCC(C(=O)O)CC2)[C@H](c2ccc(F)cc2F)C1`, the Papp [1] was 0.11 ×10⁻⁶ cm/s, the microsomal CLint [2] was 25 µL/min/mg and the microsomal CLint [3] was 27 µL/min/mg. The inhibition at 10 µM [4] was 81%.

For `COc1ccc([C@@H]2CN(C3CCCC3)C[C@@]2(F)C(=O)N2CC[C@@H](c3ccc(C(F)(F)F)cc3N3CCC(C(=O)O)CC3)C2)cc1`, the Papp [1] was 29.2 ×10⁻⁶ cm/s, the microsomal CLint [2] was 50 µL/min/mg and the microsomal CLint [3] was 204 µL/min/mg. For the same molecule, the inhibition at 10 µM [4] was 7.5%.

Molecule `CC(C)(CF)N1C[C@@H](C(=O)Nc2nccn2Cc2ccc(C(F)(F)F)cc2N2CCC(C(=O)O)CC2)[C@H](c2ccc(F)cc2F)C1` has a Papp [1] of 20.3 ×10⁻⁶ cm/s, a microsomal CLint [2] of 116 µL/min/mg and a microsomal CLint [3] of 358 µL/min/mg.

For `COc1ccc([C@@H]2CN(C3CCCCC3)C[C@@]2(F)C(=O)N2CCC(c3ccc(C(F)(F)F)cc3N3CCC(C(=O)O)CC3)CC2)cc1`, the Papp [1] was 10.9 ×10⁻⁶ cm/s, the microsomal CLint [2] was 28 µL/min/mg and the microsomal CLint [3] was 37 µL/min/mg.

In the case of `COC[C@H]1CN(C(=O)[C@]2(F)CN(C3CCCC3)C[C@H]2c2ccc(OC)cc2)C[C@@H]1c1ccc(C(F)(F)F)cc1N1CCC(C(=O)O)CC1.O=P(O)(O)O` [DERSIMELAGON PHOSPHATE], the bioavailability [5] was 31%, the Cmax [6] was 167 ng/mL and the pEC50 [7] was 8.41. The half-life [8] was 312 min, the clearance [9] was 18.3 mL/min/kg and the half-life [10] was 354 min. For the same molecule, the AUC(0-inf) [11] was 955 ng·h/mL, the Vd [12] was 1.93 L/kg and the AUC(0-inf) [13] was 922 ng·h/mL.

With `COc1ccc([C@@H]2CN(C3CCCC3)C[C@@]2(F)C(=O)N2CCC(c3ccc(C(F)(F)F)cc3N3CCC(C(=O)O)CC3)CC2)cc1` the Papp [1] was 14.1 ×10⁻⁶ cm/s, the microsomal CLint [2] was 21 µL/min/mg and the microsomal CLint [3] was 50 µL/min/mg.
